According to US12582632B2, “Inhibition of neurological injuries due to infections via administration of Butanetap and analogs thereof” (priority 2021, dated 2026):

Columns and labels:
[1] = tested on: APP, Tau, αSYN and inflammatory markers in CSF; experiment: MCI subjects proof of mechanism study, CSF markers before and after 10 days; format: in vivo, human
Description: (§1) Three Phase I clinical studies have established butanetap's safety. […] Therefore, we conclude that a much lower single daily butanetap dose would be effective in the proposed study.

[2] = Double Alzheimer/Parkinson phase 2 clinical trial; format: in vivo, human
Description: as §1

[3] = tested on: traumatic brain injury rats; experiment: Traumatic brain injury rats; format: in vivo, rat
Description: Butanetap's efficacy in treating neurodegeneration in animal models: Restored memory and learning in an APP/PS1 transgenic (tg) mouse model of AD; Restored memory and learning in a Ts65dn mouse model of Down syndrome (DS) [W. Mobley, UCSD, submitted 2020]; Preserved the retina in acute glaucoma [J Sundstrom; Hershey Medical School]; Restored colonic motility in a human SNCAA53T tg mouse model of PD (Kuo et. al., Am J Neurodegener Dis 2019; 8(1):1-15 www.AJND.us/ISSN:216 591X/AJND0086080: Translational inhibition of α-synuclein by Butanetap (Posiphen) normalizes distal colon motility in transgenic Parkinson mice); Preserved memory and learning in traumatic brain injury rats (M-F Chesselet, submitted 2020).
Butanetap's reversal of the neurotoxic cascade: Butanetap's mechanism of action is related to APP, Tau, and aSYN expression being regulated by RP1 and by iron and the way these proteins contribute to neurodegeneration by accumulating as toxic aggregates that impair axonal transport and synaptic transmission, causing inflammation, and, finally, leading to nerve cell death (as described previously).

[4] = tested on: immortalized Mouse Microglia (SIM-A9); experiment: Gingipain cytotoxicity on microglia, AlamarBlue viability; format: cell-based; conditions: 48 hours, between 1 and 10 nM
Experimental: Immortalized Mouse Astrocytes—SV40T (IMA2.1), immortalized Mouse Microglia (SIM-A9) and immortalized neuroblastoma (SH-SY5Y) cells were infected for 48 hours with gingipains HRgpA and RgpB (arginine gingipains), and Kgp (lysine-specific cysteine proteinase—Lys-gingipain, KGP). After 48 hours the cells were assessed for viability with the AlamarBlue assay and the percentage of dead or alive cells versus control was plotted. […] As expected, since neither are dying, […]. […] Therefore, we expect the efficacious buntanetap dose to fight P. gingivalis infection to be the same as to treat Alzheimer's and Parkinson's disease has no impact on the microglia or neuroblastoma survival in the presence of gingipains.

[5] = tested on: neuroblastoma cells (SH-SY5Y); experiment: Gingipain-induced cell aggregation; format: cell-based; conditions: 24 hours RgpB (10 ug/ml), Kgp (10 ug/ml), or both, FIG. 11

SMILES: CN1CC[C@]2(C)c3cc(OC(=O)Nc4ccccc4)ccc3N(C)C12 (stereo partly drawn) [butanetap, (3aR)-1,3a,8-trimethyl-1,2,3,3a,8,8a-hexahydropyrrolo[2,3-b]indol-5-yl phenylcarbamate]
- aggregating proteins (APP/Aβ, tau/phospho-tau, alpha-synuclein) in CSF ([1]; MCI subjects, 10 days of administration, FIG. 8): normalized
- inflammation ([1]; human CSF of MCI subjects): lowered
- axonal and synaptic function ([2]; AD and PD patients): improved
- inflammatory markers ([2]; AD and PD patients): reduced
- neurotoxic protein biomarkers ([2]; AD and PD patients): reduced
- blood brain barrier crossing ([2]; AD and PD patients, once daily): crossed the blood brain barrier
- cognition as measured by ADAS-Cog11 and WAIS coding speed ([2]; AD patients, 80 mg QD, significant versus baseline, not versus placebo): improved
- motor function as measured by MDS-UPDRS (Part II, III, IV and total) ([2]; PD patients, 5, 10, 20, 40, 80 mg QD, maximum improvement for 10 & 20 mg): improved at all doses
- WAIS speed and accuracy ([2]; PD patients, significant versus placebo at 5, 20 and 80 mg): improved
- inflammation ([3]; rat brain after TBI): lowered
- impaired synaptic transmission ([3]; rat striatum after TBI): Normalized
- nerve cells ([3]; rat substantia nigra after TBI): protected
- memory and learning ([3]; traumatic brain injury rats): Preserved
- microglia survival in the presence of gingipains [4]: no impact
- gingipain-induced cell aggregation [5]: blocks
